# According to patent US10782295B2, “Cysteine-reactive ligand discovery in proteomes” (THE SCRIPPS RESEARCH INSTITUTE, priority 2013, dated 2020):
# Key:
# Assay in all cases: competitive isoTOP-ABPP, MDA-MB-231 soluble proteome
# Assay type in all cases: binding
# PEC1 = biological target: T1, PEC1 (Homo sapiens, UniProt O75521); settings: 100 μM LDE, 60 min; peptide WLSDEC*TNAVVNFLSR
# T1 construct: directly in native proteomes; endogenous in cells; host or cells: MDA-MB-231
# T1 sequence (O75521 39-394): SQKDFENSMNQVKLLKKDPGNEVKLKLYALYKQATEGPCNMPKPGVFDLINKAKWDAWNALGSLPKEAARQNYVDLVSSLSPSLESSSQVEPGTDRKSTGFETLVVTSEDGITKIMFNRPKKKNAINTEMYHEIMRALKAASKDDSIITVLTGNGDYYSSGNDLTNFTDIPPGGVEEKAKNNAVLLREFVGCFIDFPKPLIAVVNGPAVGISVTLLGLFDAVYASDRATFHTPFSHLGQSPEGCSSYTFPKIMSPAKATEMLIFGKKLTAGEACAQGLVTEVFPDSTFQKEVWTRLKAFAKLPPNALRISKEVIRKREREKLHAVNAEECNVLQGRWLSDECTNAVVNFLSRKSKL
# TNRC5 = biological target: T2, TNRC5 (Homo sapiens, UniProt Q9BT09); settings: 100 μM LDE, 60 min; peptide QC*DVLVEEFEEVIEDWYR
# T2 construct: directly in native proteomes; endogenous in cells; host or cells: MDA-MB-231
# T2 sequence (Q9BT09 31-278): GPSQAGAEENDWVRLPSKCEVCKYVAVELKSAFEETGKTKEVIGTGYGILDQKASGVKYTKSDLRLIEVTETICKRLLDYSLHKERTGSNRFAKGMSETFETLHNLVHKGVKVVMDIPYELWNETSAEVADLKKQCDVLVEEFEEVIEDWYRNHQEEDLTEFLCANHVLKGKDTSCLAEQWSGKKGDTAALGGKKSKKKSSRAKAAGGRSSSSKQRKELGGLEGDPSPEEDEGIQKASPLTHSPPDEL
# MACROD1 = biological target: T3, MACROD1 (Homo sapiens, UniProt Q9BQ69); settings: 100 μM LDE, 60 min; peptide LEVDAIVNAANSSLLGGGGVDGC*IHR
# T3 construct: directly in native proteomes; endogenous in cells; host or cells: MDA-MB-231
# T3 sequence (Q9BQ69 1-325): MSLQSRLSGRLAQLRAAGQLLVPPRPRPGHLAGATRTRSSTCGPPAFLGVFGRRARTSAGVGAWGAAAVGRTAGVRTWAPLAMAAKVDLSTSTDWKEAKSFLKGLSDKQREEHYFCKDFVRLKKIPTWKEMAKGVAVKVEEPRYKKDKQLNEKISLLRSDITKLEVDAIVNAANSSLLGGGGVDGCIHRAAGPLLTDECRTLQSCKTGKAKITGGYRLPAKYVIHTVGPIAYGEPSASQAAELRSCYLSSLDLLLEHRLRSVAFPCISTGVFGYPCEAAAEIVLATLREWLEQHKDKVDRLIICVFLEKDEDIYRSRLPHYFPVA
SMILES,R value (isoTOP-ABPP ratio heavy/light) for IA-labeled cysteine of PEC1 (PEC1),R value (isoTOP-ABPP ratio heavy/light) for IA-labeled cysteine of TNRC5 (TNRC5),R value (isoTOP-ABPP ratio heavy/light) for IA-labeled cysteine of MACROD1 (MACROD1)
"CCCCCCCCCCCCC/C=C/C=O [2-HD, 2-trans-hexadecenal]",1.06,1.06,1.02
"CCCCCC(O)/C=C/C=O (stereo not drawn) [4-HNE, 4-Hydroxynonenal]",1.86,1.29,1.56
"CCCCC/C=C/C=C1/C(=O)C=C[C@@H]1C/C=C\CCCC(=O)O [PGJ2, 15-deoxy-Δ12,14-prostaglandin J2]",8.23,11.77,7.65
